Biological target: T1, Escherichia coli ferric enterobactin receptor, FepA (FepAE280C) (Escherichia coli, UniProt P05825, E302C)
T1 construct: expressed in transfected cells; host or cells: E. coli KDF541 (fepA, tonB+) carrying pFepAE280C; also KDF570 (fepA, tonB)
Type: cell-based
Experimental: Indicated at (A) are ESR analyses of MTSL-labeled bacteria expressing FepAE280C, KDF541(9) containing pITS449 of pFepAE280C was grown in LB medium and subcultured into T medium plus appropriate nutritional supplements at 1%. After 16 hours, bacteria were harvested and suspended in labeling buffer [50 mM Mops and 60 mM NaCl (PH7.5)]. Spin labels were added (to a final concentration of 20 μM MTSL or 10 μM MAL6) and incubated 2 hours at room temperature with shaking, and the cells were washed twice with reaction buffer containing 0.05% Tween-20 and once with reaction buffer alone. […] For ESR analysis, 10^10 cells were suspended in 100 μl of 0.01 M NaHPO4 (pH 6.9) containing 0.4% glucose. X-band spectra of MTSL-labeled KDF541/pFepAE280C (top), KDF541/pITS449 (fepA^+; center), or KDF541 (fepA; bottom) were recorded on a Bruker EMX spectrometer, operating at 9.8 GHz with a total scan range of 150 G and 100-kHz modulation frequency, at 4° C. in a quartz flat cell. Peaks a and b show the position of strongly and weakly immobilized spin labels, respectively. Indicated at (B) are [^125I]-labeled protein A Western blots with anti-MAL6 sera. MAL6 was coupled to bovine serum albumin (BSA) and ovalbumin (OVA). New Zealand White rabbits were immunized with BSA-MAL6 conjugates [100 μg/week for 1 month (29)], and polyclonal serum was collected in week 5 and assayed for antigen specificity by enzyme-linked immunosorbent assay (30) and Western blots against BSA, BSA-MAL6, OVA, and OVA-MAL6 (lanes 1 through 4, respectively). Lysates (5×10^7 cells) of KDF541, KDF541/pITS449, and KDF541/pFepAE280C, previously labeled with MAL6, as described above, were reacted with the anti-MAL6 polyclonal serum (lanes 5 through 7, respectively). Arrows indicate the positions of (top to bottom) FepAE280C-MAL6, BSA-MAL6, BSA, and OVA-MAL6.
KDF541/pFepAE280C was grown, spin-labeled, and prepared as described in FIG. 1. Signal-averaged X-band spectra (six field sweeps collected over an 8-minute period) of spin-labeled bacteria were recorded at 4° C. as indicated at (A) and again after warming the flat cell to 37° C. [indicated at (B) (31)]. A fresh aliquot of cells from the same labeling reaction was suspended in saturating ferric enterobactin (300 μM) at 4° C. as indicated at (C), the sample was warned to 37° C., and spectra were recorded after 5 minutes, as indicated at (D), and 15 minutes, as indicated at (E) (midpoints of the signal-average measurements). The bacteria were then cooled again to 4° C. for 30 minutes, and spectra were recorded, as indicated at (F). Each of the spectra was double-integrated, as indicated at (G), from 3405 to 3555 G to determine the total number of MTSL spins (O) and from 3443 to 3477 G to determine the spins derived from the strongly immobilized (a) and weakly immobilized (b) peaks (●).
KDF541/pFepAE280C was grown, spin-labeled, and prepared as described in FIG. 1. Singla-averaged X-band spectra (six field sweeps collected over an 8-minute period) of spin-labeled bacteria were recorded in the presence of saturating levels of colicin B (10 μM) at 4° C., as indicated at (A). The sample was warmed to 37° C. and analyzed after 5 minutes, as indicated at (B), 15 minutes, as indicated at (C), and 75 minutes, as indicated at (D) (midpoints of signal average measurement before recooling to 4° C., as indicated at (E). The same strain was grown in minimal media and starved for glucose for 2 hours to deplete its energy stores, spin-labeled, and exposed to colicin B (10 μM) at 37° C. for 30 minutes, as indicated at (F). The spectra were double-integrated, as indicated at (G), as described in FIG. 2.
KDF541/pFepAE280C was grown, spin-labeled, and prepared as described in FIG. 1.

[1] = ferric enterobactin in excess, 37° C.

T1 sequence (P05825 23-746 E302C): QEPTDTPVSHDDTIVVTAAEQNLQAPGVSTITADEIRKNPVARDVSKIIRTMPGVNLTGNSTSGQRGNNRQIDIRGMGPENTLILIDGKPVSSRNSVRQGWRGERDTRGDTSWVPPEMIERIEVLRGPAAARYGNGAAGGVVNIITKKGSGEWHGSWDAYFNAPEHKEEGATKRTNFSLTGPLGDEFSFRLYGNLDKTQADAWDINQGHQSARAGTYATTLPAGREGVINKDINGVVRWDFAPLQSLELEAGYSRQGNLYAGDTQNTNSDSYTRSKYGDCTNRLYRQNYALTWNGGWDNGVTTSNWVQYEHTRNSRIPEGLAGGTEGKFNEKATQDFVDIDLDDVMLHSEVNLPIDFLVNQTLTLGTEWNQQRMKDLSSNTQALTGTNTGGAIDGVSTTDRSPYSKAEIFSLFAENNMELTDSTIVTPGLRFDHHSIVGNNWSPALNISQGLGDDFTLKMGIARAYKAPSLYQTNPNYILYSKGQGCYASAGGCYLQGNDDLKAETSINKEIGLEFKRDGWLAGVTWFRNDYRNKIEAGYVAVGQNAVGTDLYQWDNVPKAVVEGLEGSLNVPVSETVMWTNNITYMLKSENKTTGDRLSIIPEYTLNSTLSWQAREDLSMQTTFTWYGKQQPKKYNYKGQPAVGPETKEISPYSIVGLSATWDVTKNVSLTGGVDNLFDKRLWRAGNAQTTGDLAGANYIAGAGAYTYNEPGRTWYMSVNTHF

Compound	period over which the burst of spin-label motion peaked and receded (ferric enterobactin 300 μM, 37° C., continuous monitoring at 3472 G) [min]	effect on MTSL mobility (weakly immobilized peak at 3472 G) monitored over time (ferric enterobactin 300 μM, KDF541/pFepAE280C, glucose present, warmed from 4° C. to 37° C.)	time for first surge in motion to decay [1] [s]	time for first surge in motion to peak [1] [s]	time over which immobilization of MTSL at residue 280 became more severe (cells with bound colicin warmed to 37° C.) [min]	effect on MTSL mobility during continual incubation at 4° C. (colicin bound, 4° C., over the course of 1 hour)	effect on MTSL mobility in signal-averaged X-band spectra (saturating colicin B (10 μM), 37° C.)
O=C(N[C@H]1COC(=O)[C@@H](NC(=O)c2cccc([O-])c2[O-])COC(=O)[C@@H](NC(=O)c2cccc([O-])c2[O-])COC1=O)c1cccc([O-])c1[O-].[Fe+3] [ferric enterobactin]	5	stimulated a burst of motion	140	140			
colicin B					30	did not take place	progressively eliminated weakly immobilized spins

Reference: patent US20050287070A1, “Ligand-specific opening of a gated-porin channel in the outer membrane of living bacteria” (priority 1997, published 2005)
